Data published in patent US20110257131A1, “PHENYLALKYL-IMIDAZOLE-BISPHOSPHONATE COMPOUNDS” (NOVARTIS AG, priority 2008, published 2011).

These compounds were tested against T1, Human farnesyl pyrophosphate synthase (FPPS, Swissprot ID: P14324) (Homo sapiens, UniProt P14324) (assay: FPPS assay (label-free LC/MS/MS quantification of farnesyl pyrophosphate)). Settings: cell-free in vitro FPPS assay; 5 min pre-incubation with enzyme, GPP/IPP 5 μM each, 30 min reaction.
T1 construct: made in house
T1 sequence (P14324 67-419 limits assumed): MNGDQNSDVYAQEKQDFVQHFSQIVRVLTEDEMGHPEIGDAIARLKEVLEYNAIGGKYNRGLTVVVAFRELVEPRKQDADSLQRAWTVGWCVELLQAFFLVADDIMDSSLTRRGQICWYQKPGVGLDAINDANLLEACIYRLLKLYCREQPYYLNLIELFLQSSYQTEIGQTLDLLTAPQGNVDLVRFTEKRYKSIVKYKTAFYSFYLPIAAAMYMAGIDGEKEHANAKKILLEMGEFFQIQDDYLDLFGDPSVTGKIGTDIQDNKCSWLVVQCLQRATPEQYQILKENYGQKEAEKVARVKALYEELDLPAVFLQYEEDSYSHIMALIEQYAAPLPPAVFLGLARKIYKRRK
Assay type: biochemical
Procedure: For example, in a cell-free in vitro assay the superiority of compounds of the formula I over compounds already known can be shown. Briefly, the reaction proceeds in the presence of enzyme and an inhibitor of the formula I, and the reaction product (farneysyl pyrophosphate) is quantified by LC/MS/MS.
In detail, the inhibitor and enzyme are pre-incubated before adding the substrates
The assay is a label-free assay for farnesyl pyrophosphate synthase (FPPS) based on LC/MS/MS. This method quantifies in-vitro untagged farnesyl pyrophosphate (FPP) and is suitable for high throughput screening (HTS) to find inhibitors of FPPS and for the determinations of IC50 values of candidate compounds. The analysis time is 2.0 minutes with a total cycle time of 2.5 minutes. The analysis can be formatted for 384-well plates resulting in an analysis time of 16 hours per plate.
Pentanol, methanol, and isopropyl alcohol are HPLC grade and obtained from Fisher Scientific, DMIPA is from Sigma-Aldrich. Water is from an in-house Milli-Q system. The assay buffer (20 mM HEPES, 5 mM MgCl2 and 1 mM CaCl2) is prepared by dilution from […] stock solutions obtained from Sigma-Aldrich. Standards of geranyl pyrophosphate (GPP), […], and farnesyl S-thiolopyrophosphate (FSPP) are from Echelon Biosciences (Salt Lake City, Utah). Human farnesyl pyrophosphate synthase (FPPS, Swissprot ID: P14324) (13.8 mg/mL) is prepared as described by Rondeau at al (ChemMedChem 2006, 1, 267-273.
LC/MS/MS analyses are performed on a Micromass Quattro Micro tandem quadrupole mass analyser (Waters Corp, Milford, Mass., USA) interfaced to an Agilent 1100 binary LC pump Agilent Technologies, Inc., Santa Clara, Calif., USA). Injection is performed with a CTC Analytics autosampler (Leap Technologies Inc., Carrboro, N.C., USA) using an injection loop size of 2.5 μL. Chromatography is performed on a Waters 2.1×20 mm Xterra MS C18 5 μm guard column (P/N186000652) (Waters Corp., Milford, Mass., USA) contained in a guard column holder (P/N 186000262) using 0.1% DMIPA/methanol as solvent A and 0.1% DMIPA/water as solvent B (DMIPA is dimethylisopropylamine). The gradient is 5% A from 0.00 to 0.30 min, 50% A at 0.31 min., 80% A at 1.00 min., and 5% A from 1.01 to 2.00 min. The flow rate is 0.3 mL/min, and the flow is diverted to waste from 0.00 to 0.50 min and again from 1.20 to 2.00 min.
The Multiple Reaction Monitoring (MRM) transitions monitored are 381->79—for FPP and 397->159—for FSPP at a collision energy of 22 eV and a collision cell pressure of 2.1×10-3 mbar of Ar. The dwell time per transition is 400 msec with a span of 0.4 Da. The inter-channel delay and interscan delay are both 0.02 sec. Other mass spectrometric operating parameters are: capillary, 2.0 kV; cone, 35 V; extractor, 2.0 V, source temp., 100 ° C.; desolvation gas temp., 250° C.; desolvation gas flow, 650 L/hr; cone gas flow, 25 L/hr; multiplier, 650 V.
The total cycle time per sample is 2.5 minutes. Since the analysis is formatted for 384-well plates, a plate is analyzed in 16 hours. The chromatograms are processed using Quanlynx software, which divides the area of individual FPP peaks by the area of the FSPP peaks (internal standard). The resulting values are reported as the relative response for the corresponding sample well.
Into each well of a 384-well plate, 5 μL of compound in 20% DMSO/water is placed. […]

| IC50 [nM] | Compound |
| --- | --- |
| 3.5 | Cc1ccc(CCCc2cncn2CC(O)(P(=O)(O)O)P(=O)(O)O)cc1 [Example 5, {1-Hydroxy-1-phosphono-2-[5-(3-p-tolyl-propyl)-imidazol-1-yl]-ethyl}-phosphonic acid] |
| 6.7 | O=P(O)(O)C(O)(Cn1cncc1CCc1ccccc1)P(=O)(O)O [Example 4, [1-Hydroxy-2-(5-phenethyl-imidazol-1-yl)-1-phosphono-ethyl]-phosphonic acid] |
| 1.9 | O=P(O)(O)C(O)(Cn1cnc(CCc2ccccc2)c1)P(=O)(O)O [Example 3, [1-Hydroxy-2-(4-phenethyl-imidazol-1-yl)-1-phosphono-ethyl]-phosphonic acid] |
| 1.4 | O=P(O)(O)C(O)(Cn1cnc(Cc2ccccc2)c1)P(=O)(O)O [Example 2, [2-(4-Benzyl-imidazol-1-yl)-1-hydroxy-1-phosphono-ethyl]-phosphonic acid] |
| 1.9 | O=P(O)(O)C(O)(Cn1cncc1CCCc1ccccc1)P(=O)(O)O [Example 1, {1-Hydroxy-2-[5-(3-phenyl-propyl)-imidazol-1-yl]-1-phosphono-ethyl}-phosphonic acid] |
